Here are results for three compounds from patent US20230265151A1, “GIP/GLP1 CO-AGONIST COMPOUNDS” (priority 2020, published 2023).

What all share (assay type): cell-based
In one experiment the target is T1, hGIPR (Homo sapiens, UniProt P48546).
T1 construct: expressed in transfected cells
T1 sequence (P48546 22-466): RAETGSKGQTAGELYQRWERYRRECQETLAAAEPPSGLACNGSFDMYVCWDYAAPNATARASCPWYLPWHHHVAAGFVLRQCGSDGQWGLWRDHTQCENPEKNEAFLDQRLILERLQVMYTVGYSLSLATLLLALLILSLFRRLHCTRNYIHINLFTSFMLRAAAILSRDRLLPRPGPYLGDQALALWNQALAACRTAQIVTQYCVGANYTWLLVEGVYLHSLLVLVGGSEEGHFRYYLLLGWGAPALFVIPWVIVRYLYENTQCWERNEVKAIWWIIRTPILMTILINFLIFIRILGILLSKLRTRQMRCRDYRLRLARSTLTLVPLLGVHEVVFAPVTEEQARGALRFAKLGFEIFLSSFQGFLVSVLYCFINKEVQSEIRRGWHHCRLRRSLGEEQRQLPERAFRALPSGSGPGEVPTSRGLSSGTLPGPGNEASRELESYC
In words: Functional cAMP formation (HTRF) in HEK-293 clonal cells expressing hGIPR, 0.1% bovine casein, without or with 1.0% human serum albumin. As to conditions: for Emax: percent of maximal response to GIP(1-42)NH2. The method in brief: (§1)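 Cells were stimulated with peptide for 30 min at 37° C, then lysed in buffer carrying cAMP-d2 and anti-cAMP Eu3+-cryptate for a competitive HTRF read after at least 60 min at room temperature. The 665/620 nm ratio was converted to nM cAMP against a standard curve.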
For orientation: Cyclic AMP is a second messenger, typically raised through Gs and lowered through Gi signalling.

The target of a further experiment is hGLP-1R (Homo sapiens, UniProt P43220). In words: Functional cAMP formation (HTRF) in HEK-293 clonal cells expressing hGLP-1R, 0.1% bovine casein, without or with 1.0% human serum albumin. Also on record: expressed in transfected cells. The conditions noted are these: for EC50: geometric mean. The method in brief: as §1
The target of another experiment is T2, hGCGR (Homo sapiens, UniProt P47871).
T2 construct: expressed in transfected cells
In words: Functional cAMP formation (HTRF) in HEK-293 clonal cells expressing hGCGR, 0.1% bovine casein, without or with 1.0% human serum albumin. In outline: as §1

Read-outs that look alike come from different tables or passages of the source. Some results are limits rather than exact numbers.

T2 sequence (P47871 26-477): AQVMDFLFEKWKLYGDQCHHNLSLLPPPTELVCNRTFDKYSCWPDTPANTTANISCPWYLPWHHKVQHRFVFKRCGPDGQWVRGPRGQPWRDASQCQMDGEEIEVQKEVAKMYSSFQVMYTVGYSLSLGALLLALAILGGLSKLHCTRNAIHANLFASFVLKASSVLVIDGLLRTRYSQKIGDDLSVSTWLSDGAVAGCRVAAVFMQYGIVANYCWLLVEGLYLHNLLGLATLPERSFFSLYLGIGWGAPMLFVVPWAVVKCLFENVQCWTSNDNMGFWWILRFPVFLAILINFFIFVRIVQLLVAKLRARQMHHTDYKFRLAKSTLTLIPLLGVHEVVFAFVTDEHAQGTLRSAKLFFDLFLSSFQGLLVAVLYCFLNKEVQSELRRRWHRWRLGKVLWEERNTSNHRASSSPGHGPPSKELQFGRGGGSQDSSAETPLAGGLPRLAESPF
Sequence of hGLP-1R (P43220 24-463): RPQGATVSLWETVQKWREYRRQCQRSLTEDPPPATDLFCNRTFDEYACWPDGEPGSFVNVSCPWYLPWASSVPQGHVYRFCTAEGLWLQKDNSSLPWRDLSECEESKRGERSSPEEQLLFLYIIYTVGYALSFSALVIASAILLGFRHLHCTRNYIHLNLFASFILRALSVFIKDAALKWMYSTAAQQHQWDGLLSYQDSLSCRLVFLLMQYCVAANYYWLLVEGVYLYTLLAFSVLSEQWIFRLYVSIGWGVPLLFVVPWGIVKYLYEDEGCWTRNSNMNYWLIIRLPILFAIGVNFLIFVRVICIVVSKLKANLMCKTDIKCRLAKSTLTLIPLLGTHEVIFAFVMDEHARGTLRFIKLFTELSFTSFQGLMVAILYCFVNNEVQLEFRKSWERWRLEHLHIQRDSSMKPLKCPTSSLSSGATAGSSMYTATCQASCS

As a reminder, the Emax is the maximal effect, on the per cent scale that the assay sets. By EC50 is commonly meant the midpoint of the concentration-response curve. Take `CC[C@H](C)[C@H](NC(=O)[C@H](CC(C)C)NC(=O)[C@](C)(Cc1ccc(O)cc1)NC(=O)[C@@H](CCC(=O)O)NC(=O)[C@@H](NC(=O)[C@H](Cc1ccccc1)NC(=O)[C@H](CCCCNC(=O)COCCOCCNC(=O)COCCOCCNC(=O)CCCCCCCCCCCCC(=O)O)NC(=O)C(C)(C)NC(=O)[C@H](CCC(N)=O)NC(=O)[C@H](C)NC(=O)[C@H](CCCCNC(=O)COCCOCCNC(=O)COCCOCCNC(=O)CCCCCCCCCCCCC(=O)O)NC(=O)[C@H](CCCN)NC(=O)[C@H](CC(=O)O)NC(=O)[C@H](CC(C)C)NC(=O)[C@](C)(CC(C)C)NC(=O)[C@@H](NC(=O)C(C)(C)NC(=O)[C@@H](NC(=O)[C@H](CC(=O)O)NC(=O)[C@H](CO)NC(=O)[C@@H](NC(=O)[C@](C)(Cc1ccccc1F)NC(=O)[C@@H](NC(=O)CNC(=O)[C@H](CCC(=O)O)NC(=O)C(C)(C)NC(=O)[C@@H](N)Cc1ccc(O)cc1)[C@@H](C)O)[C@@H](C)O)C(C)C)[C@@H](C)CC)[C@@H](C)CC)C(=O)N[C@@H](CCC(=O)O)C(=O)NCC(=O)NCC(=O)N1CCC[C@H]1C(=O)N[C@@H](CO)C(=O)N[C@@H](CO)C(=O)NCC(=O)N[C@@H](C)C(=O)N1CCC[C@H]1C(=O)N1CCC[C@H]1C(=O)N1CCC[C@H]1C(=O)N[C@@H](CO)C(N)=O` [Example 386]: the Emax stood at 81.3% at hGIPR (HEK293, cAMP, 37° C., 0.1% bovine casein and 1.0% human serum albumin, read-out: hGIPR Emax, % ± SEM); 95.7% at hGIPR (HEK293, cAMP, 37° C., 0.1% bovine casein, arithmetic mean, read-out: hGIPR Emax, % ± SEM); 96.8% at hGLP-1R (HEK293, cAMP, 37° C., 0.1% bovine casein and 1.0% human serum albumin, percent of maximal response to GLP-1(7-36)NH2, read-out: hGLP-1R Emax, % ± SEM); 98.9% on hGLP-1R (HEK293, cAMP, 37° C., 0.1% bovine casein, percent of maximal response to GLP-1(7-36)NH2, arithmetic mean, read-out: hGLP-1R Emax, % ± SEM). In addition, the EC50 at hGIPR (cAMP, 37° C., 0.1% bovine casein (no human serum albumin), geometric mean, read-out: hGIPR EC50, nM (SEM, n)) is 0.0174 nM; at hGIPR (cAMP, 37° C., 0.1% bovine casein and 1.0% human serum albumin, geometric mean (SEM, n), read-out: hGIPR EC50, nM (SEM, n)), 2.08 nM; at hGLP-1R (cAMP, 37° C., 0.1% bovine casein (no human serum albumin), read-out: hGLP-1R EC50, nM (SEM, n)) it was 0.194 nM; on hGCGR (cAMP, 37° C., 0.1% bovine casein (no human serum albumin), geometric mean, read-out: hGCGR EC50, nM (SEM, n)), more than 9950 nM; at hGCGR (cAMP, 37° C., 0.1% bovine casein and 1.0% human serum albumin, geometric mean (SEM, n), read-out: hGCGR EC50, nM (SEM, n)) it was more than 9950 nM.
On to `CC[C@H](C)[C@H](NC(=O)[C@H](CC(C)C)NC(=O)[C@H](CCCCNC(=O)COCCOCCNC(=O)COCCOCCNC(=O)CC[C@H](NC(=O)CCCc1ccc(C(C)(C)C)cc1)C(=O)O)NC(=O)[C@H](CCC(=O)O)NC(=O)[C@@H](NC(=O)[C@H](Cc1ccccc1)NC(=O)[C@H](CCC(=O)O)NC(=O)C(C)(C)NC(=O)[C@H](CCC(N)=O)NC(=O)[C@H](C)NC(=O)[C@H](CCCCNC(=O)COCCOCCNC(=O)COCCOCCNC(=O)CC[C@H](NC(=O)CCCc1ccc(C(C)(C)C)cc1)C(=O)O)NC(=O)[C@H](CCCN)NC(=O)[C@H](CC(=O)O)NC(=O)[C@H](CC(C)C)NC(=O)[C@](C)(CC(C)C)NC(=O)[C@@H](NC(=O)[C@H](CO)NC(=O)[C@H](Cc1ccncc1)NC(=O)[C@H](CC(=O)O)NC(=O)[C@H](CO)NC(=O)[C@@H](NC(=O)[C@](C)(Cc1ccccc1F)NC(=O)[C@@H](NC(=O)CNC(=O)[C@H](CCC(=O)O)NC(=O)C(C)(C)NC(=O)[C@@H](N)Cc1ccc(O)cc1)[C@@H](C)O)[C@@H](C)O)[C@@H](C)CC)[C@@H](C)CC)C(=O)N[C@@H](CCC(=O)O)C(=O)NCC(=O)NCC(=O)N1CCC[C@H]1C(=O)N[C@@H](CO)C(=O)N[C@@H](CO)C(=O)NCC(=O)N[C@@H](C)C(=O)N1CCC[C@H]1C(=O)N1CCC[C@H]1C(=O)N1CCC[C@H]1C(=O)N[C@@H](CO)C(N)=O` [Example 68], for which the EC50 is 0.0831 nM on hGIPR (0.1% bovine casein and 1.0% human serum albumin, 37° C., geometric mean, read-out: hGIPR EC50, nM (SEM, n)); 0.0105 nM at hGIPR (cAMP, incubated at 37° C., 0.1% bovine casein (no human serum albumin), geometric mean, read-out: hGIPR EC50, nM (SEM, n)); 5.79 nM at hGLP-1R (0.1% bovine casein and 1.0% human serum albumin, 37° C., read-out: hGLP-1R EC50, nM (SEM, n)); more than 9950 nM at hGCGR (0.1% bovine casein and 1.0% human serum albumin, 37° C., geometric mean, read-out: hGCGR EC50, nM (SEM, n)); more than 9950 nM on hGCGR (cAMP, incubated at 37° C., 0.1% bovine casein (no human serum albumin), geometric mean, read-out: hGCGR EC50, nM (SEM, n)). Moreover, the Emax amounted to 92.4% at hGIPR (HEK293, 0.1% bovine casein and 1.0% human serum albumin, 37° C., read-out: hGIPR Emax, % ± SEM); 95.9% at hGLP-1R (HEK293, percent of maximal response to GLP-1(7-36)NH2, 37° C., 0.1% bovine casein, arithmetic mean, read-out: hGLP-1R Emax, % ± SEM).
Turning to `CC[C@H](C)[C@H](NC(=O)[C@H](CC(C)C)NC(=O)[C@](C)(Cc1ccc(O)cc1)NC(=O)[C@@H](CCC(=O)O)NC(=O)[C@@H](NC(=O)[C@H](Cc1ccccc1)NC(=O)[C@H](CCC(=O)O)NC(=O)C(C)(C)NC(=O)[C@H](CCC(N)=O)NC(=O)[C@H](C)NC(=O)[C@H](CCCCNC(=O)COCCOCCNC(=O)COCCOCCNC(=O)CCCCCCCCCOc1ccc(C(=O)O)cc1)NC(=O)[C@H](CCCN)NC(=O)[C@H](CC(=O)O)NC(=O)[C@H](CC(C)C)NC(=O)[C@](C)(CC(C)C)NC(=O)[C@@H](NC(=O)C(C)(C)NC(=O)[C@@H](NC(=O)[C@H](CC(=O)O)NC(=O)[C@H](CO)NC(=O)[C@@H](NC(=O)[C@](C)(Cc1ccccc1F)NC(=O)[C@@H](NC(=O)CNC(=O)[C@H](CCC(=O)O)NC(=O)C(C)(C)NC(=O)[C@@H](N)Cc1ccc(O)cc1)[C@@H](C)O)[C@@H](C)O)C(C)C)[C@@H](C)CC)[C@@H](C)CC)C(=O)N[C@@H](CCCCNC(=O)COCCOCCNC(=O)COCCOCCNC(=O)CCCCCCCCCOc1ccc(C(=O)O)cc1)C(=O)NCC(=O)NCC(=O)N1CCC[C@H]1C(=O)N[C@@H](CO)C(=O)N[C@@H](CO)C(=O)NCC(=O)N[C@@H](C)C(=O)N1CCC[C@H]1C(=O)N1CCC[C@H]1C(=O)N1CCC[C@H]1C(=O)N[C@@H](CO)C(N)=O` [Example 397], the Emax came to 84.5% at hGIPR (HEK293, read-out: hGIPR Emax, % ± SEM, cAMP, 37° C., 0.1% bovine casein and 1.0% human serum albumin); 94.6% on hGIPR (HEK293, read-out: hGIPR Emax, % ± SEM, cAMP, 37° C., 0.1% bovine casein, arithmetic mean); 95.8% on hGLP-1R (HEK293, read-out: hGLP-1R Emax, % ± SEM, cAMP, 37° C., 0.1% bovine casein, percent of maximal response to GLP-1(7-36)NH2, arithmetic mean). Besides, the EC50 was 0.0293 nM at hGIPR (hGIPR EC50, nM (SEM, n), cAMP, 37° C., 0.1% bovine casein (no human serum albumin), geometric mean); 0.166 nM at hGLP-1R (hGLP-1R EC50, nM (SEM, n), cAMP, 37° C., 0.1% bovine casein (no human serum albumin)); more than 9950 nM at hGCGR (hGCGR EC50, nM (SEM, n), cAMP, 37° C., 0.1% bovine casein (no human serum albumin), geometric mean); more than 9950 nM at hGCGR (hGCGR EC50, nM (SEM, n), cAMP, 37° C., 0.1% bovine casein and 1.0% human serum albumin, geometric mean (SEM, n)).
